According to BindingDB's records for doi:10.7270/Q25719FH (Srmlsc, 2007):

Molecular target: Multidrug resistance-associated protein 1 (Homo sapiens, UniProt P33527)
Assay: doxorubicin EC50 increase in MRP-1 cells, dose response, cell-based, doxorubicin EC50 shift (AID 844)

Multidrug resistance-associated protein 1, sequence (P33527 whole entry): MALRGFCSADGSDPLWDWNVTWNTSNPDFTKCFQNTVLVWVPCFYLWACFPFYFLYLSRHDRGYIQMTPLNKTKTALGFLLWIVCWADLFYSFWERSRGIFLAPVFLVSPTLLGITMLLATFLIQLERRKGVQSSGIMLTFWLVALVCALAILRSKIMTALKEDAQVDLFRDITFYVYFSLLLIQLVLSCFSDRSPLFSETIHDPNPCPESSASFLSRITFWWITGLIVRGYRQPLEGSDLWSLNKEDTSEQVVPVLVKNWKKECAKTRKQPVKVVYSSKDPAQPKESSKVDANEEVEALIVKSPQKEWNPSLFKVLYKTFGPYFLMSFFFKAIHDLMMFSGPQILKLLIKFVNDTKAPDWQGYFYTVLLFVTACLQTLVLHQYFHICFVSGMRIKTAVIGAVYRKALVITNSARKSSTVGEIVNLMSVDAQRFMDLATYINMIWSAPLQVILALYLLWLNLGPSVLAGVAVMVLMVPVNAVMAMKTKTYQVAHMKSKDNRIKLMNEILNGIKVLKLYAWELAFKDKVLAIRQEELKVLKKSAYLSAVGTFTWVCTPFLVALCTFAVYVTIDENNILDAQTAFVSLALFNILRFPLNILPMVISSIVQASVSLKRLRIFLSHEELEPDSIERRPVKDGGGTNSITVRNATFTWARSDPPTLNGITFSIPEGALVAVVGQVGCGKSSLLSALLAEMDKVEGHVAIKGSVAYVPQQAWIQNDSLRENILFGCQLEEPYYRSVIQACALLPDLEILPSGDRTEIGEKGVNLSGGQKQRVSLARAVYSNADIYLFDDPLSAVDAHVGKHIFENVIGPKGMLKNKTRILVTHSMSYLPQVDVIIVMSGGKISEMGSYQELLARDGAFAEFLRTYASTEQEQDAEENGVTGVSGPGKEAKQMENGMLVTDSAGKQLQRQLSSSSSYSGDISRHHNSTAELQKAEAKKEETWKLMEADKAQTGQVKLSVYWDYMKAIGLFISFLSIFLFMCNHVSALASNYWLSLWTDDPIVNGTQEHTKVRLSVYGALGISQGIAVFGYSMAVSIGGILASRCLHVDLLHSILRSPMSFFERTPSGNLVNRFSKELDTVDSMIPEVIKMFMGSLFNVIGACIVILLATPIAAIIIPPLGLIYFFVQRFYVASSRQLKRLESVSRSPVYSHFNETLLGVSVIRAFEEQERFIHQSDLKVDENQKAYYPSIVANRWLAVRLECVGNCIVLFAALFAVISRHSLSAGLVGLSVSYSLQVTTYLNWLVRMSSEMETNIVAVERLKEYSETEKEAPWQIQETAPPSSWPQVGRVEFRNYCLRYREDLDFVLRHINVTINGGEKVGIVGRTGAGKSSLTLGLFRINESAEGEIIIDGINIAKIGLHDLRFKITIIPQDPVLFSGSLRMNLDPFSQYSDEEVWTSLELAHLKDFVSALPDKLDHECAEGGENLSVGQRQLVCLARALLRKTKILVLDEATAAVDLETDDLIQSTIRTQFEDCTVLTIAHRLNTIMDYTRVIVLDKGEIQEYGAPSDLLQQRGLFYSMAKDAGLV

Cc1cc(=O)oc2c1ccc1oc(C(N=O)c3ccccc3)c(C)c12 (stereo not given) [4,9-dimethyl-8-(N-oxidanyl-C-phenyl-carbonimidoyl)furo[2,3-h]chromen-2-one] gave an EC50 of 7.02 µM.

C=C(C)C(=O)Nc1cc(=O)n(-c2ccccc2)[nH]1 [2-methyl-N-(5-oxo-1-phenyl-4H-pyrazol-3-yl)prop-2-enamide] was tested, and the EC50 was 5.63 µM.

Work on C=CCc1c(C)nc(-c2ccccc2)nc1N=NCc1ccccc1 [6-methyl-2-phenyl-N-[(phenylmethylene)amino]-5-prop-2-enyl-4-pyrimidinamine] yielded an EC50 of 4.7 µM.

Oc1csc(=S)n1N=C1CCCCCC1 [SMR000212426] showed an EC50 of 4.99 µM.

Molecule Oc1cc(N2CCC(O)(c3ccc(Br)cc3)CC2)c(O)n1-c1ccc(Cl)cc1 [3-[4-(4-bromophenyl)-4-hydroxy-1-piperidinyl]-1-(4-chlorophenyl)-2,5-pyrrolidinedione] has an EC50 of 7.39 µM.

O=C(O)c1cccc(-n2c(O)c3c(c2O)CC(Cl)=CC3)c1 [3-[5-chloranyl-1,3-bis(oxidanylidene)-3a,4,7,7a-tetrahydroisoindol-2-yl]benzoic acid] was tested, and the EC50 was 7.97 µM.

CCN(C1CCCCC1)S(=O)(=O)c1cc(C)ccc1OC [MLS000028538] gave an EC50 of 3.33 µM.

In the case of COc1cccc(C=NNC(=O)c2[nH][nH]c(=O)c2C)c1O [N'-[(E)-(5-methoxy-6-oxidanylidene-cyclohexa-2,4-dien-1-ylidene)methyl]-4-methyl-5-oxidanylidene-1,4-dihydropyrazole-3-carbohydrazide], the EC50 is reported as 6.47 µM.

O=C1C=CC([N+](=O)[O-])=CC1/C=N/n1cnc2ccccc21 (stereo not given) [2-[(E)-Benzoimidazol-1-yliminomethyl]-4-nitro-phenol] was tested, and the EC50 was 3.61 µM.

Molecule N#CC(C#N)N=Nc1ccc(S(=O)(=O)N2CCCC2)cc1 [2-[(4-pyrrolidin-1-ylsulfonylphenyl)hydrazinylidene]propanedinitrile] has an EC50 of 5.88 µM.

Oc1nc(Nc2ccccc2)sc1Cc1cccc(Cl)c1Cl [2-anilino-5-(2,3-dichlorobenzyl)-2-thiazolin-4-one] gave an EC50 of 6.54 µM.

Cc1ccc(-n2[nH]c(C)c(C(c3ccccc3O)c3c(C)[nH]n(-c4ccc(C)cc4C)c3=O)c2=O)c(C)c1 was tested, and the EC50 was 3.81 µM.

CCOC(=O)C1C(C)=Nc2ncnn2C1c1cccnc1 (stereo not given) gave an EC50 of 4.5 µM.

O=S(=O)(c1ccc(Cl)cc1Br)N1CCCCC1 [1-(2-bromanyl-4-chloranyl-phenyl)sulfonylpiperidine] was tested, and the EC50 was 5.42 µM.

CCOc1ccc2c(c1)C(N=O)C(=O)N2C (stereo not given) [(3E)-5-ethoxy-1-methyl-1H-indole-2,3-dione 3-oxime] gave an EC50 of 3.14 µM.
